Measured values published in ChEMBL document CHEMBL4196088, “Induction of cell killing and autophagy by amphiphilic pyrrolidine derivatives on human pancreatic cancer cells” (Eur J Med Chem, 2018).
Calls of active or inactive are those of the source. The rule behind the calls is not given here.

How the values were obtained:
PK9 [1] = test: Antiproliferative activity against human PK9 cells; format: functional, cell-based
MIA PaCa-2 [2] = test: Antiproliferative activity against human MIAPaCa2 cells; format: functional, cell-based
MIA PaCa-2 [3] = test: Induction of apoptosis in human MIAPaCa2 cells assessed as early apoptotic cells at 20 uM after 48 hrs by Annexin V-FITC/propidium iodide staining based flow cytometry (reference value: 5.16%); format: functional
PANC-1 [4] = test: Induction of apoptosis in human PANC1 cells assessed as accumulation at sub-G0/G1 phase at 20 uM after 48 hrs by propidium iodide staining based flow cytometry (reference value: 0.2 to 2.9%); format: functional
MIA PaCa-2 [5] = test: Induction of autophagy in human MIAPaCa2 cells assessed as increase in LC3-2 protein expression at 20 uM after 24 to 48 hrs by Western blot analysis; format: functional, cell-based
[6] = Induction of apoptosis in HPNE cells at 5 to 40 uM after 24 to 72 hrs by Annexin V/7-AAD staining based flow cytometry; format: cell-based; conditions: human
PANC-1 [7] = test: Induction of apoptosis in human PANC1 cells assessed as accumulation at sub-G0/G1 phase at 10 uM after 48 hrs by propidium iodide staining based flow cytometry (reference value: 0.2 to 2.9%); format: functional
PK9 [8] = test: Induction of apoptosis in human PK9 cells at 5 to 40 uM after 24 to 72 hrs by Annexin V/7-AAD staining based flow cytometry; format: functional, cell-based
BXPC-3 [9] = test: Induction of apoptosis in human BxPC3 cells assessed as increase in cleaved PARP protein expression at 20 uM after 24 to 48 hrs by Western blot analysis; format: functional, cell-based
Fibroblast = test: Induction of apoptosis in human primary fibroblasts at 5 to 40 uM after 24 to 72 hrs by Annexin V/7-AAD staining based flow cytometry; format: cell-based
BXPC-3 [10] = test: Growth inhibition of human BxPC3 cells after 72 hrs by XTT assay; format: functional, cell-based; conditions: BXPC-3, 72 h
PANC-1 [11] = test: Induction of apoptosis in human PANC1 cells assessed as accumulation at sub-G0/G1 phase at 10 uM after 72 hrs by propidium iodide staining based flow cytometry (reference value: 1.6 to 3.2%); format: functional
MIA PaCa-2 [12] = test: Induction of apoptosis in human MIAPaCa2 cells assessed as late apoptotic cells at 20 uM after 24 hrs by Annexin V-FITC/propidium iodide staining based flow cytometry (reference value: 7.4%); format: functional
PANC-1 [13] = test: Induction of apoptosis in human PANC1 cells assessed as accumulation at sub-G0/G1 phase at 10 uM after 24 hrs by propidium iodide staining based flow cytometry (reference value: 0.6 to 0.7%); format: functional
MIA PaCa-2 [14] = test: Induction of apoptosis in human MIAPaCa2 cells assessed as late apoptotic cells at 20 uM after 48 hrs by Annexin V-FITC/propidium iodide staining based flow cytometry (reference value: 7.4%); format: functional
MIA PaCa-2 [15] = test: Induction of apoptosis in human MIAPaCa2 cells assessed as live cells at 20 uM after 48 hrs by Annexin V-FITC/propidium iodide staining based flow cytometry (reference value: 86.79%); format: functional
MIA PaCa-2 [16] = test: Induction of apoptosis in human MIAPaCa2 cells assessed as early apoptotic cells at 20 uM after 24 hrs by Annexin V-FITC/propidium iodide staining based flow cytometry (reference value: 5.16%); format: functional
PANC-1 [17] = test: Induction of apoptosis in human PANC1 cells assessed as accumulation at sub-G0/G1 phase at 20 uM after 72 hrs by propidium iodide staining based flow cytometry (reference value: 1.6 to 3.2%); format: functional
BXPC-3 [18] = test: Induction of autophagy in human BxPC3 cells assessed as increase in LC3-2 protein expression at 20 uM after 24 to 48 hrs by Western blot analysis; format: functional, cell-based
MIA PaCa-2 [19] = test: Induction of apoptosis in human MIAPaCa2 cells assessed as live cells at 20 uM after 24 hrs by Annexin V-FITC/propidium iodide staining based flow cytometry (reference value: 86.79%); format: functional
MIA PaCa-2 [20] = test: Induction of apoptosis in human MIAPaCa2 cells assessed as increase in cleaved PARP protein expression at 20 uM after 24 to 48 hrs by Western blot analysis; format: functional, cell-based
PANC-1 [21] = test: Induction of apoptosis in human PANC1 cells assessed as accumulation at sub-G0/G1 phase at 20 uM after 24 hrs by propidium iodide staining based flow cytometry (reference value: 0.6 to 0.7%); format: functional
MIA PaCa-2 [22] = test: Induction of apoptosis in human MIAPaCa2 cells assessed as necrotic cells at 20 uM after 48 hrs by Annexin V-FITC/propidium iodide staining based flow cytometry (reference value: 0.63%); format: functional
MIA PaCa-2 [23] = test: Induction of apoptosis in human MIAPaCa2 cells assessed as necrotic cells at 20 uM after 24 hrs by Annexin V-FITC/propidium iodide staining based flow cytometry (reference value: 0.63%); format: functional
PANC-1 [24] = test: Growth inhibition of human PANC1 cells after 72 hrs by XTT assay; format: functional, cell-based; conditions: PANC-1, 72 h
HeLa = test: Growth inhibition of human HeLa cells after 72 hrs; format: functional, cell-based
NCI-H460 = test: Growth inhibition of human NCI-H460 cells after 72 hrs; format: functional, cell-based; conditions: NCI-H460, 72 h
Jurkat = test: Growth inhibition of human Jurkat cells after 72 hrs; format: functional, cell-based
ACHN = test: Growth inhibition of human ACHN cells after 72 hrs; format: functional, cell-based

| SMILES | IC50 (MIA PaCa-2 [2]) | IC50 (BXPC-3 [10]) | IC50 (PANC-1 [24]) | IC50 (PK9 [1]) | Activity (PANC-1 [4]) | Activity [6] | Activity (PANC-1 [7]) | Activity (PK9 [8]) | Activity (Fibroblast) | Activity (PANC-1 [11]) | Activity (PANC-1 [13]) | Activity (PANC-1 [17]) | Activity (PANC-1 [21]) | also measured |
| --- | --- | --- | --- | --- | --- | --- | --- | --- | --- | --- | --- | --- | --- | --- |
| Cl.NCC(=O)N1CCC[C@H]1COCCCCCCCCC/C=C/c1ccc(-c2ccccc2)cc1 | – | 7 µM | 6.3 µM | – | 13.3% | Toxic | 16.6% | Active | Toxic | 35.8% | 2% | 30.5% | 1.6% | – |
| CCCCCCCCCCCCc1cn(C[C@H]2NC[C@H](O)[C@@H]2O)nn1 | 14 to 45 µM | – | – | 14 to 45 µM | – | – | – | – | – | – | – | – | – | – |
| CCCCCCCCCCCCc1cn(CC[C@H]2NC[C@@H](O)[C@H]2O)nn1 | 14 to 45 µM | – | – | 14 to 45 µM | – | – | – | – | – | – | – | – | – | – |
| CCCCCCCC/C=C\CCCCCCCCOC[C@H]1NC[C@H](O)[C@@H]1O | – | – | – | – | – | – | – | – | – | – | – | – | – | IC50 (HeLa): 8 µM; IC50 (NCI-H460): 9 µM; IC50 (Jurkat): 7 µM; IC50 (ACHN): 3000 nM |

The next lines start with results.

| IC50 (MIA PaCa-2 [2]) | IC50 (BXPC-3 [10]) | IC50 (PANC-1 [24]) | SMILES | IC50 (PK9 [1]) | Activity (PANC-1 [4]) | Activity [6] | Activity (PANC-1 [7]) | Activity (PK9 [8]) | Activity (Fibroblast) | Activity (PANC-1 [11]) | Activity (PANC-1 [13]) | Activity (PANC-1 [17]) | Activity (PANC-1 [21]) | also measured |
| --- | --- | --- | --- | --- | --- | --- | --- | --- | --- | --- | --- | --- | --- | --- |
| 14 to 45 µM | – | – | CCCCCCCCCCCCc1cn(C[C@@H]2N[C@@H](C)[C@@H](O)[C@H]2O)nn1 | 14 to 45 µM | – | – | – | – | – | – | – | – | – | – |
| – | 4.3 µM | 5 µM | CCCCCCCC/C=C\CCCCCCCCOC[C@@H]1CCCN1C(=O)[C@@H]1CCCN1.Cl | – | 21.3% | Toxic | 12.3% | Active | Toxic | 56.3% | 2.6% | 74.9% | 4.4% | Activity (MIA PaCa-2 [3]): 10.86%; Activity (MIA PaCa-2 [5]): inactive; Activity (BXPC-3 [9]): inactive; Activity (MIA PaCa-2 [12]): 8.64%; Activity (MIA PaCa-2 [14]): 7.94%; Activity (MIA PaCa-2 [15]): 81.02%; Activity (MIA PaCa-2 [16]): 6.78%; Activity (BXPC-3 [18]): inactive; Activity (MIA PaCa-2 [19]): 83.47%; Activity (MIA PaCa-2 [20]): inactive; Activity (MIA PaCa-2 [22]): 0.16%; Activity (MIA PaCa-2 [23]): 1.1% |
